In patent US20120225862A1, “HETEROARYL BENZAMIDES, COMPOSITIONS AND METHODS OF USE” (AUCKLAND UNIVSERVICES LIMITED, priority 2009, published 2012):

What was measured:
RCC4/VHL = assay: XTT IC50 assay, selectivity RCC4 versus RCC4 with VHL-reintroduced; type: cell-based, human; settings: selectivity ratio of XTT IC50 values, RCC4 vs RCC4/VHL
Experimental: (§1) RCC4 parental and RCC4 with VHL-reintroduced (RCC4/VHL), SN12C and SN12C-CSCG-VHL shRNA were maintained in DMEM supplemented with 10% FCS.
(§2) IC50 values for compounds were determined by XTT assay. For 2,3-bis[2-methoxy-4-nitro-5-sulfophenyl]-2H-tetrazolium-5-carboxanilide inner salt (XTT) assays, five thousand cells were plated in 96-well plates. The next day, vehicle or drug was added to each well and incubated for four days. Media was aspirated and phenol red-free medium with 0.3 mg/mL XTT and 2.65 ug/mL N-methyl dibenzopyrazine methyl sulfate was added. This was incubated at 37° C. for 1-2 hours and absorbance was read at 450 nm. IC50 values for each compound were calculated using linear interpolation.
(§3) For 2,3-bis[2-methoxy-4-nitro-5-sulfophenyl]-2H-tetrazolium-5-carboxanilide (XTT) assays, five thousand cells were plated in 96-well plates. The next day, vehicle (DMSO) or drug was added by serial dilution. Four days later, media were aspirated, XTT solution (0.3 mg/ml of XTT (Sigma), 2.65 mg/ml N-methyl dibenxopyrazine methyl sulfate (Simga) in phenol red-free media) was added, and the plates were incubated at 37° C. for 1-2 hours. Metabolism of XTT was quantified by measuring the absorbance at 450 nm. IC50s were calculated using linear interpolation. For clonogenic survival assays, three hundred cells were plated per 60 mm tissue culture dish. The cells were allowed to attach overnight and then treated with vehicle or drug for 14 days. Colonies were fixed and stained with crystal violet (0.1% crystal violet in 95% ethanol). All conditions were measured in triplicate and each experiment was done in duplicate or triplicate. To determine necrosis, cells were treated with drug for a given time point. Media and cells were collected, centrifugated, and resuspended in 0.4% trypan blue (Invitrogen). Live and dead cells were counted on a hematocytometer.

RCC4 = assay: XTT IC50 / viability assay, RCC4 cells; type: cell-based, human; settings: Homo sapiens, RCC4, 96 h; XTT assay, four days
Experimental: as §1, §2, §3

Structure (SMILES)	Ratio (RCC4:RCC/VHL) (RCC4/VHL)	IC50 (RCC4) [nM]
CC(C)(C)c1ccc(S(=O)(=O)NCc2ccc(C(=O)Nc3cccnc3Cl)cc2)cc1 [Example 113, 4-({[(4-tert-Butylphenyl)sulfonyl]amino}methyl)-N-(2-chloro-3-pyridinyl)benzamide]	a (“a” reflects a ratio of RCC4/RCC-VHL+ ranging from 1 to 10)	> 20000
CN(C(=O)c1ccc(CNS(=O)(=O)c2ccccc2)cc1)c1cccnc1 [Example 90, N-Methyl-4-{[(phenylsulfonyl)amino]methyl}-N-(3-pyridinyl)benzamide]	a (“a” reflects a ratio of RCC4/RCC-VHL+ ranging from 1 to 10)	1000 to 20000
CN(C)C1Cc2ccc(S(=O)(=O)NCc3ccc(C(=O)Nc4cccnc4)cc3)cc2C1 (stereo not shown) [Example 75, 4-((2-(Dimethylamino)-2,3-dihydro-1H-indene-5-sulfonamido)methyl)-N-(pyridin-3-yl)benzamide]	c (“c” reflects a ratio of >100)	< 1000
Cc1nc(-c2cccc(S(=O)(=O)NCc3ccc(C(=O)Nc4cccnc4)cc3)c2)no1 [Example 30, 4-[({[3-(5-Methyl-1,2,4-oxadiazol-3-yl)phenyl]sulfonyl}amino)methyl]-N-(3-pyridinyl)benzamide]	c (“c” reflects a ratio of >100)	< 1000
O=C(Nc1cccnc1)c1ccc(CNS(=O)(=O)c2ccc(Oc3ccccc3)cc2)cc1 [Example 35, 4-((4-Phenoxyphenylsulfonamido)methyl)-N-(pyridin-3-yl)benzamide]	b (“b” reflects from 10 to 100)	1000 to 20000
CCCN(CCC)Cc1ccc(S(=O)(=O)NCc2ccc(C(=O)Nc3cccnc3)cc2)cc1 [Example 79, 4-{[({4-[(Dipropylamino)methyl]phenyl}sulfonyl)amino]methyl}-N-(3-pyridinyl)benzamide]	b (“b” reflects from 10 to 100)	< 1000
Cc1ccc(S(=O)(=O)NCc2ccc(C(=O)Nc3cccnc3)cc2)c(C)c1 [Example 64, 4-((2,4-Dimethylphenylsulfonamido)methyl)-N-(pyridin-3-yl)benzamide]	a (“a” reflects a ratio of RCC4/RCC-VHL+ ranging from 1 to 10)	1000 to 20000
O=C(Nc1cccnc1)c1ccc(CNS(=O)(=O)c2ccc(F)cc2)cc1 [Example 43, 4-((4-Fluorophenylsulfonamido)methyl)-N-(pyridin-3-yl)benzamide]	a (“a” reflects a ratio of RCC4/RCC-VHL+ ranging from 1 to 10)	1000 to 20000
O=C(Nc1cccnc1)c1ccc(CNS(=O)(=O)c2cccc([N+](=O)[O-])c2)cc1 [Example 25, 4-((3-Nitrophenylsulfonamido)methyl)-N-(pyridin-3-yl)benzamide]	b (“b” reflects from 10 to 100)	1000 to 20000
CN(C)Cc1ccc(S(=O)(=O)NCc2ccc(C(=O)Nc3cccnc3)cc2)cc1 [Example 77, 4-[({4-[(Dimethylamino)methyl]phenyl}sulfonyl)amino]methyl-N-(3-pyridinyl)benzamide]	b (“b” reflects from 10 to 100)	< 1000
CN(C(=O)c1ccc(CNS(=O)(=O)c2ccc(C(C)(C)C)cc2)cc1)c1cccnc1 [Example 89, 4-[(4-tert-Butylphenylsulfonamido)methyl]-N-methyl-N-(3-pyridinyl)benzamide]	a (“a” reflects a ratio of RCC4/RCC-VHL+ ranging from 1 to 10)	1000 to 20000
COC1CCN(Cc2ccc(S(=O)(=O)NCc3ccc(C(=O)Nc4cccnc4)cc3)cc2)CC1 [Example 84, 4-{[({4-[(4-Methoxy-1-piperidinyl)methyl]phenyl}sulfonyl)amino]methyl}-N-(3-pyridinyl)benzamide]	c (“c” reflects a ratio of >100)	< 1000
CN(C)c1cccc2c(S(=O)(=O)NCc3ccc(C(=O)Nc4cccnc4)cc3)cccc12 [Example 73, 4-((5-(Dimethylamino)naphthalene-1-sulfonamido)methyl)-N-(pyridin-3-yl)benzamide]	c (“c” reflects a ratio of >100)	< 1000
Cc1cc(C)cc(COC(=O)NCc2ccc(C(=O)Nc3cccnc3)cc2)c1 [Compound A, reference compound]	a (“a” reflects a ratio of RCC4/RCC-VHL+ ranging from 1 to 10)	> 20000
O=C(Nc1cccnc1)c1ccc(CNS(=O)(=O)c2ccccc2)cc1 [Example 2, 4-(Phenylsulfonamidomethyl)-N-(pyridin-3-yl)benzamide]	a (“a” reflects a ratio of RCC4/RCC-VHL+ ranging from 1 to 10)	1000 to 20000
N#Cc1ccccc1S(=O)(=O)NCc1ccc(C(=O)Nc2cccnc2)cc1 [Example 16, 4-((2-Cyanophenylsulfonamido)methyl)-N-(pyridin-3-yl)benzamide]	a (“a” reflects a ratio of RCC4/RCC-VHL+ ranging from 1 to 10)	> 20000
CC(C)(C)c1ccc(S(=O)(=O)NCc2ccc(C(=O)Nc3cnccc3Cl)cc2)cc1 [Example 112, 4-({[(4-tert-Butylphenyl)sulfonyl]amino}methyl)-N-(4-chloro-3-pyridinyl)benzamide]	a (“a” reflects a ratio of RCC4/RCC-VHL+ ranging from 1 to 10)	> 20000
Cc1cc(C)cc(S(=O)(=O)NCc2ccc(C(=O)Nc3cccnc3)cc2)c1 [Example 66, 4-((3,5-Dimethylphenylsulfonamido)methyl)-N-(pyridin-3-yl)benzamide]	c (“c” reflects a ratio of >100)	< 1000
O=C(Nc1cccnc1)c1ccc(CNS(=O)(=O)c2ccccc2F)cc1 [Example 11, 4-((2-Fluorophenylsulfonamido)methyl)-N-(pyridin-3-yl)benzamide]	a (“a” reflects a ratio of RCC4/RCC-VHL+ ranging from 1 to 10)	1000 to 20000
O=C(Nc1cccnc1)c1ccc(CNS(=O)(=O)c2ccc(OC(F)(F)F)cc2)cc1 [Example 46, N-(Pyridin-3-yl)-4-((4-(trifluoromethoxy)phenylsulfonamido)methyl)benzamide]	b (“b” reflects from 10 to 100)	1000 to 20000
CN(C)CCNc1ccc(S(=O)(=O)NCc2ccc(C(=O)Nc3cccnc3)cc2)cc1 [Example 133, 4-({[(4-{[2-(Dimethylamino)ethyl]amino}phenyl)sulfonyl]amino}methyl)-N-(3-pyridinyl)benzamide]	c (“c” reflects a ratio of >100)	< 1000
O=C(Nc1cccnc1)c1ccc(CNS(=O)(=O)c2ccc(N3CCOCC3)cc2)cc1 [Example 127, 4-[({[4-(4-Morpholinyl)phenyl]sulfonyl}amino)methyl]-N-(3-pyridinyl)benzamide]	b (“b” reflects from 10 to 100)	< 1000
Cc1cccc(S(=O)(=O)NCc2ccc(C(=O)Nc3cccnc3)cc2)c1 [Example 19, 4-((3-Methylphenylsulfonamido)methyl)-N-(pyridin-3-yl)benzamide]	b (“b” reflects from 10 to 100)	< 1000
Cc1ccc(S(=O)(=O)NCc2ccc(C(=O)Nc3cccnc3)cc2)cc1 [Example 36, 4-((4-Methylphenylsulfonamido)methyl)-N-(pyridin-3-yl)benzamide]	b (“b” reflects from 10 to 100)	1000 to 20000
O=C(Nc1cccnc1)c1ccc(CNS(=O)(=O)c2ccc(CN3CCCCCC3)cc2)cc1 [Example 82, 4-[({[4-(1-Azepanylmethyl)phenyl]sulfonyl}amino)methyl]-N-(3-pyridinyl)benzamide]	c (“c” reflects a ratio of >100)	< 1000
O=C(Nc1cccnc1)c1ccc(CNS(=O)(=O)c2ccc(Cl)cc2)cc1 [Example 44, 4-((4-Chlorophenylsulfonamido)methyl)-N-(pyridin-3-yl)benzamide]	b (“b” reflects from 10 to 100)	1000 to 20000
CC(=O)Nc1ccc(S(=O)(=O)NCc2ccc(C(=O)Nc3cccnc3)cc2)cc1 [Example 42, 4-((4-Acetamidophenylsulfonamido)methyl)-N-(pyridin-3-yl)benzamide]	a (“a” reflects a ratio of RCC4/RCC-VHL+ ranging from 1 to 10)	1000 to 20000
CCN(CC)Cc1ccc(S(=O)(=O)NCc2ccc(C(=O)Nc3cccnc3)cc2)cc1 [Example 78, 4-{[({4-[(Diethylamino)methyl]phenyl}sulfonyl)amino]methyl}-N-(3-pyridinyl)benzamide]	c (“c” reflects a ratio of >100)	< 1000
Cc1nc(-c2ccc(S(=O)(=O)NCc3ccc(C(=O)Nc4cccnc4)cc3)cc2)cs1 [Example 59, 4-[({[4-(2-Methyl-1,3-thiazol-4-yl)phenyl]sulfonyl}amino)methyl]-N-(3-pyridinyl)benzamide]	b (“b” reflects from 10 to 100)	1000 to 20000
